By Km is commonly meant the concentration of substrate that gives half-maximal velocity.

Experiment [1] concerns the target rgH5N1 NA (Influenza A virus, UniProt Q6DPL2). The class given is biochemical.
Experiment [2] concerns viral NAs. The class given is biochemical, reverse-genetic influenza A viruses rgH1N1, rgH5N1, rgH1N3.

Sequence of rgH5N1 NA (Q6DPL2 whole entry, looked up): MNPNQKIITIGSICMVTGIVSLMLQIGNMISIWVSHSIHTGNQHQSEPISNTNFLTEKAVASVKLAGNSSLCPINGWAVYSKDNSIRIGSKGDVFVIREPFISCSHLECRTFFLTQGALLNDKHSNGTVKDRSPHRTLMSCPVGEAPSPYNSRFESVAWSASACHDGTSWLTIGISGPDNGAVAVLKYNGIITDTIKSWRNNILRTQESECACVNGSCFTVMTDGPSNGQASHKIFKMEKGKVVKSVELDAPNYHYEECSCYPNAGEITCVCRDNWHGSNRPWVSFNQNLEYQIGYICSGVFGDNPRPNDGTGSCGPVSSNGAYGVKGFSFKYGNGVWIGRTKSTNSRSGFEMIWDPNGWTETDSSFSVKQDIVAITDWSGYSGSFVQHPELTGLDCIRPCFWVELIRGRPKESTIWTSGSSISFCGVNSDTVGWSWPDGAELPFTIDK

As to `CC(=O)N[C@@H]1[C@@H](O)C[C@](Oc2ccc3c(C)cc(=O)oc3c2)(C(=O)O)O[C@H]1C(O)[C@H](O)CO` (stereo partly drawn) [MUNANA, 2′-(4-methylumbelliferyl)-α-D-N-acetylneuraminic acid], the results for the Michaelis-Menten constant (Km) in experiment [1] and in experiment [2] were 15 ± 3 µM and 15 to 18 µM, respectively.

The values are drawn from paper PMC7112848 (Journal of Virological Methods, 2008).
